Assay results: ChEMBL document CHEMBL1141544, “Synthesis of N-pyrimidinyl-2-phenoxyacetamides as adenosine A2A receptor antagonists” (Bioorg Med Chem Lett, 2008)
pIC50, pKi: −log10 of the molar value. Converted amounts (≈) assume the structure as drawn.

How the values were obtained:
Adenosine receptor A2a [1] = target: T1, Adenosine receptor A2a (Homo sapiens, UniProt P29274); test: Displacement of [3H]ZM-241385 from human adenosine A2A receptor expressed in HEK293 cells; assay type: cell-based
T1 sequence (P29274 whole entry): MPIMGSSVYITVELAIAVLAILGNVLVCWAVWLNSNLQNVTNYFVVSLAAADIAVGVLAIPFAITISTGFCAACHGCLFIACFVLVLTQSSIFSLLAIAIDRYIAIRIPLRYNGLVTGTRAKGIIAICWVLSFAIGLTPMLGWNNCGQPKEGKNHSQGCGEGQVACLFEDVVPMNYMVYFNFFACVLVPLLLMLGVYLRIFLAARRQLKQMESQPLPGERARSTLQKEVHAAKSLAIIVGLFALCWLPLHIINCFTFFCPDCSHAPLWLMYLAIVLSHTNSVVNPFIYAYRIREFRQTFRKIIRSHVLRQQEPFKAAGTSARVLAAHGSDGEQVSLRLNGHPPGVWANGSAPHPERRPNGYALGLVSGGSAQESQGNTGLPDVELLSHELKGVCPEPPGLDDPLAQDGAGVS

Adenosine receptor A1 [2] = target: T2, Adenosine receptor A1 (Homo sapiens, UniProt P30542); test: Displacement of [3H]DPCPX from human adenosine A1 receptor expressed in HEK293 cells; assay type: cell-based
T2 sequence (P30542 whole entry): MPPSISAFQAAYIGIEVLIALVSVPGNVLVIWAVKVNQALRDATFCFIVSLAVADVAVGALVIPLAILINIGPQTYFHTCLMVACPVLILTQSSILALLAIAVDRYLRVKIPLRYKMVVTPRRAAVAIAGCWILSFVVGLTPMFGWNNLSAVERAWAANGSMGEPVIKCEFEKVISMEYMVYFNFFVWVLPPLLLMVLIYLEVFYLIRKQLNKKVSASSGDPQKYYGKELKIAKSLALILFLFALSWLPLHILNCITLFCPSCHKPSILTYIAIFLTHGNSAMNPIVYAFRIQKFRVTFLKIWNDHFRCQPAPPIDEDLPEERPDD

Homo sapiens = species: Homo sapiens; test: Selectivity of Ki for human adenosine A2A receptor over Ki for human adenosine A1 receptor
Adenosine receptor A2a [3] = target: T1, Adenosine receptor A2a; test: Binding affinity at adenosine A2A receptor
[4] = Solubility at pH 5; assay type: physicochemical; settings: buffer
Cytochrome P450 3A4 = Cytochrome P450 3A4 (Homo sapiens, UniProt P08684); test: Inhibition of CYP3A4; assay type: ADME
Chain of Cytochrome P450 3A4 (P08684 whole entry): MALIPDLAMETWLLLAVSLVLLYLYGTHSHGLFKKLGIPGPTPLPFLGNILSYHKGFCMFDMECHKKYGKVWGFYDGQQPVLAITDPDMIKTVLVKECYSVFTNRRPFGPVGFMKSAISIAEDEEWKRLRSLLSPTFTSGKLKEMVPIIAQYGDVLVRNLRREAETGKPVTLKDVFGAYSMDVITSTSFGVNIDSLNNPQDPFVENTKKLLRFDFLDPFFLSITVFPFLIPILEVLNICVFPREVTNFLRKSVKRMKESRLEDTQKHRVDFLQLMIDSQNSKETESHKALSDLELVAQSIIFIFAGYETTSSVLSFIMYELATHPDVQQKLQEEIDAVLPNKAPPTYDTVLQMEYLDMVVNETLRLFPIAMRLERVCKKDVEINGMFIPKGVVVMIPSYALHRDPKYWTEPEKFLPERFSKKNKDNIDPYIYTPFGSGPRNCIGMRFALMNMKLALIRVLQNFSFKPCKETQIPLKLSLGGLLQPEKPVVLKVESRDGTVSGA

Cytochrome P450 2D6 = Cytochrome P450 2D6 (Homo sapiens, UniProt P10635); test: Inhibition of CYP2D6; assay type: ADME
Chain of Cytochrome P450 2D6 (P10635 whole entry): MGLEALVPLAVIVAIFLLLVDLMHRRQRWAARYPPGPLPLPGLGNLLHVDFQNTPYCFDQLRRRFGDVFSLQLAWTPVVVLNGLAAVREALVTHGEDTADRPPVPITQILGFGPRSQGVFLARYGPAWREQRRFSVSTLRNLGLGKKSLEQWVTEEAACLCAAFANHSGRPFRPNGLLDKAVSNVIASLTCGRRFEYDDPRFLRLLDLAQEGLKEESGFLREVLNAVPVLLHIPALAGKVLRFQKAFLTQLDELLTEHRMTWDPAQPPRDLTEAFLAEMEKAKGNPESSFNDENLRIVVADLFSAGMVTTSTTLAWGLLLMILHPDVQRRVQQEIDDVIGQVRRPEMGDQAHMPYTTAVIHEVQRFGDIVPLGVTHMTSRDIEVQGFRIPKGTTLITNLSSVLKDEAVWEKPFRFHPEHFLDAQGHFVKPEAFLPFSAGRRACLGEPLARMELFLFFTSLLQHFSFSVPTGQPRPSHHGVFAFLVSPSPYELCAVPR

Adenosine receptor A2a [5] = target: Adenosine receptor A2a (Rattus norvegicus, UniProt P30543); test: Inhibition of rat adenosine A2A receptor
Chain of Adenosine receptor A2a (Rattus norvegicus, UniProt P30543) (P30543 whole entry): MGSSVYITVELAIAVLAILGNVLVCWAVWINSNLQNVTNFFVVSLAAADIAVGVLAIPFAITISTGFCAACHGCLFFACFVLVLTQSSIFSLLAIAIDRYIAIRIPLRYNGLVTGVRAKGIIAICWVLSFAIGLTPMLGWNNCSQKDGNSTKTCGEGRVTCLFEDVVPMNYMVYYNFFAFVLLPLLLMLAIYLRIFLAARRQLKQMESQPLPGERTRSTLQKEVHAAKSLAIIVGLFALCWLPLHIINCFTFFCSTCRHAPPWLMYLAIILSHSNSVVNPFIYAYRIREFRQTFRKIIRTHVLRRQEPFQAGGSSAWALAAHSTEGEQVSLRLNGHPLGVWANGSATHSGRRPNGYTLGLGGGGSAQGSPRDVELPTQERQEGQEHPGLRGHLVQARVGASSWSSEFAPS

[6] = Oral bioavailability in rat; assay type: ADME, organism-based; settings: in vivo
[7] = Volume of distribution in rat; assay type: ADME, organism-based; settings: in vivo
[8] = Half life in rat; assay type: ADME, organism-based; settings: in vivo
[9] = Plasma clearance in rat; assay type: ADME, organism-based
[10] = Drug level in rat brain after 4 hrs; assay type: ADME, tissue-based; settings: read-out: Drug uptake
Rattus norvegicus = test: Inhibition of haloperidol-induced catalepsy in orally dosed rat; assay type: functional; settings: po, read-out: MED
[11] = target: Voltage-gated inwardly rectifying potassium channel KCNH2 (Homo sapiens, UniProt Q12809); test: Binding affinity at human ERG
Chain of Voltage-gated inwardly rectifying potassium channel KCNH2 (Q12809 whole entry): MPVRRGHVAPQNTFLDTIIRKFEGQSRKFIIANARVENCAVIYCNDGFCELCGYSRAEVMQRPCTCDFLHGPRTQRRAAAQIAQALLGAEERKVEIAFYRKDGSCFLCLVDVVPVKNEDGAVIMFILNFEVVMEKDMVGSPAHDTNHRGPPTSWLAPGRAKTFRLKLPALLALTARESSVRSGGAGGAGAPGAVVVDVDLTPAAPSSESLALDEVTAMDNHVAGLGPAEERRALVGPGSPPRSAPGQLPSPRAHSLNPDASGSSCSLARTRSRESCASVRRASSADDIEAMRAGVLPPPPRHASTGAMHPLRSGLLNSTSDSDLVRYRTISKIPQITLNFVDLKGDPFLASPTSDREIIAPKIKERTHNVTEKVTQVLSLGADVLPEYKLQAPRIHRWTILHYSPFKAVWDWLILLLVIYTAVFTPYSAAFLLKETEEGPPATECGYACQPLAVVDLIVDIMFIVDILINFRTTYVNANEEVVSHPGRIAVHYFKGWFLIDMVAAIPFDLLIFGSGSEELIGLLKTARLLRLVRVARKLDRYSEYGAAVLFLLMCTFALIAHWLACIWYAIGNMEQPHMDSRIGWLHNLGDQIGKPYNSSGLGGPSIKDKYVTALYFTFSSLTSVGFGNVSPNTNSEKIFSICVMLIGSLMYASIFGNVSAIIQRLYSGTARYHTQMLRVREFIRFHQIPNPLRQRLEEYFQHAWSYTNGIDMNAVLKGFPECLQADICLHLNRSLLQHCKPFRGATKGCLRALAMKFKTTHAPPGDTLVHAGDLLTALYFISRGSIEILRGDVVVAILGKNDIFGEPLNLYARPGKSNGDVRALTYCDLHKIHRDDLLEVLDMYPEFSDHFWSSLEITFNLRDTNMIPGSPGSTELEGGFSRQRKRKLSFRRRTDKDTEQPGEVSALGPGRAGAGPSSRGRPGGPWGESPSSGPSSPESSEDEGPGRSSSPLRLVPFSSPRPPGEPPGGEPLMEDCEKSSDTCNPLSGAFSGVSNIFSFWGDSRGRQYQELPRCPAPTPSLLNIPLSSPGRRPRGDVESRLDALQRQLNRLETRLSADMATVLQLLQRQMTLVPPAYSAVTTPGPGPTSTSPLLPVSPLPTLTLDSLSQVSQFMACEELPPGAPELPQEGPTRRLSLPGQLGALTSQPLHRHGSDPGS

Adenosine receptor A1 [12] = target: T2, Adenosine receptor A1; test: Binding affinity at adenosine A1 receptor

Row | SMILES | pKi (Adenosine receptor A2a [1]) | pKi (Adenosine receptor A1 [2]) | also measured
1 | Cc1ccc(-c2nc(NC(=O)COc3cccc(F)c3)cc(-c3nccs3)n2)o1 | 7.96 | 5.66 | –
2 | COc1cccc(CN(C)C)c1OCC(=O)Nc1cc(-n2nc(C)cc2C)nc(-c2ccc(C)o2)n1 | 8.24 | 5.85 | –
3 | Cc1ccc(-c2nc(NC(=O)COc3cccc(Cl)c3)cc(-c3nccs3)n2)o1 | 7.85 | 5.82 | –
4 | CC(=O)Nc1cc(-n2cccn2)nc(-c2ccco2)n1 | – | – | Ratio Ki (Homo sapiens): 17; pKi (Adenosine receptor A2a [3]): 9.22
5 | Cc1cc(C)n(-c2cc(NC(=O)COc3cccc(C#N)c3)nc(-c3ccc(C)o3)n2)n1 | < 5.00 | 4.60 | –
6 | N#Cc1cccc(OCC(=O)Nc2cc(-c3nccs3)nc(-c3ccccn3)n2)c1 | 8.74 | 7.06 | –
7 | Cc1ccc(OCC(=O)Nc2cc(-c3nccs3)nc(-c3ccc(C)o3)n2)cc1 | 7.44 | 5.68 | –
8 | Cc1cc(C)n(-c2cc(NC(=O)COc3cccc(CN4CCOCC4)c3)nc(-c3ccc(C)o3)n2)n1 | 8.92 | 6.22 | Ratio Ki (Homo sapiens): 500
9 | Cc1cc(C)n(-c2cc(NC(=O)COc3ccccc3CCN3CCOCC3)nc(-c3ccc(C)o3)n2)n1 | 8.92 | 5.92 | pKi [11]: 6.74
10 | Cc1ccc(-c2nc(NC(=O)COc3ccccc3)cc(-c3nccs3)n2)o1 | 8.13 | 5.96 | –
11 | Cc1ccc(-c2nc(NC(=O)COc3ccc(F)cc3)cc(-c3nccs3)n2)o1 | < 5.00 | 5.89 | –
12 | Cc1cc(C)n(-c2cc(NC(=O)COc3cccc(CCN4CCOCC4)c3)nc(-c3ccc(C)o3)n2)n1 | 8.64 | 6.27 | –
13 | Cc1ccc(-c2nc(NC(=O)COc3cccc(C#N)c3)cc(-c3nccs3)n2)o1 | 8.17 | 5.37 | –
14 | Cc1ccc(-c2nc(NC(=O)COc3ccccc3F)cc(-c3nccs3)n2)o1 | 8.12 | 6.19 | Ratio Ki (Homo sapiens): 87
15 | Cc1ccc(-c2nc(NC(=O)CCc3ccccc3F)cc(-c3nccs3)n2)o1 | – | – | Ratio Ki (Homo sapiens): 26; pKi (Adenosine receptor A2a [3]): 7.80; pKi (Adenosine receptor A1 [12]): 6.39
16 | Cc1cc(C)nc(OCC(=O)Nc2cc(-n3nc(C)cc3C)nc(-c3ccc(C)o3)n2)n1 | 8.43 | 7.02 | –

More lines, in order of rising pKi (Adenosine receptor A2a [1]), values ahead:

Row | pKi (Adenosine receptor A2a [1]) | pKi (Adenosine receptor A1 [2]) | SMILES | also measured
17 | 8.43 | 5.01 | Cc1cc(C)n(-c2cc(NC(=O)COc3cccc(F)c3)nc(-c3ccc(C)o3)n2)n1 | Ratio Ki (Homo sapiens): 2600; solubility [4]: 80 µg/mL (≈ 190 µM)
18 | 8.44 | 6.74 | O=C(COc1cccc(F)c1)Nc1cc(-c2nccs2)nc(-c2ccccn2)n1 | –
19 | 8.85 | 6.32 | Cc1cc(C)n(-c2cc(NC(=O)COc3cc(F)cc(CN4CCOCC4)c3)nc(-c3ccc(C)o3)n2)n1 | –
20 | 9.00 | 6.57 | Cc1cc(C)n(-c2cc(NC(=O)COc3ccccc3CN(C)C)nc(-c3ccc(C)o3)n2)n1 | –
21 | 9.00 | 6.57 | Cc1ccc(OCC(=O)Nc2cc(-n3nc(C)cc3C)nc(-c3ccc(C)o3)n2)c(CN(C)C)c1 | –
22 | 9.05 | 6.70 | COc1ccc(OCC(=O)Nc2cc(-n3nc(C)cc3C)nc(-c3ccc(C)o3)n2)c(CN(C)C)c1 | pIC50 (Cytochrome P450 3A4): 5.80
23 | 9.15 | 6.13 | Cc1cc(OCC(=O)Nc2cc(-n3nc(C)cc3C)nc(-c3ccc(C)o3)n2)cc(C)n1 | pIC50 (Cytochrome P450 3A4): 5.96; pIC50 (Cytochrome P450 2D6): 7.30
24 | 9.15 | 7.14 | Cc1cc(C)n(-c2cc(NC(=O)COc3cccc(CN)c3)nc(-c3ccc(C)o3)n2)n1 | Ratio Ki (Homo sapiens): 100; pKi (Adenosine receptor A2a [3]): 9.15
25 | 9.30 | 6.85 | Cc1cc(C)n(-c2cc(NC(=O)COc3cc(F)cc(CN(C)C)c3)nc(-c3ccc(C)o3)n2)n1 | –
26 | 9.30 | 6.92 | Cc1cc(C)n(-c2cc(NC(=O)COc3cc(F)cc(CN4CCCC4)c3)nc(-c3ccc(C)o3)n2)n1 | –
27 | 9.30 | 7.11 | Cc1cc(C)n(-c2cc(NC(=O)COc3cccc(CCN(C)C)c3)nc(-c3ccc(C)o3)n2)n1 | –
28 | 9.40 | 7.22 | Cc1cc(C)n(-c2cc(NC(=O)COc3cccc(CN(C)C)c3)nc(-c3ccc(C)o3)n2)n1 | solubility [4]: 210 µg/mL (≈ 456 µM); pIC50 (Cytochrome P450 3A4): < 5.22; pIC50 (Cytochrome P450 2D6): < 5.22; pKi (Adenosine receptor A2a [5]): 8.03; bioavailability [6]: 19%; Vd [7]: 20 L/kg; half-life [8]: 48 min; clearance [9]: 330 mL/min/kg; concentration at 4 h [10]: 360 ng/g; minimal effective dose (Rattus norvegicus): 10 mg/kg
29 | 9.52 | 7.17 | CCN(C)Cc1cccc(OCC(=O)Nc2cc(-n3nc(C)cc3C)nc(-c3ccc(C)o3)n2)c1 | Ratio Ki (Homo sapiens): 100; pKi (Adenosine receptor A2a [3]): 9.52
30 | 9.52 | 6.92 | Cc1cc(C)n(-c2cc(NC(=O)COc3ccc(CN(C)C)cc3)nc(-c3ccc(C)o3)n2)n1 | –
31 | 9.52 | 6.82 | COc1cc(OCC(=O)Nc2cc(-n3nc(C)cc3C)nc(-c3ccc(C)o3)n2)ccc1CN(C)C | –
32 | 9.52 | 7.17 | CCNCc1cccc(OCC(=O)Nc2cc(-n3nc(C)cc3C)nc(-c3ccc(C)o3)n2)c1 | Ratio Ki (Homo sapiens): 100; pKi (Adenosine receptor A2a [3]): 9.52
33 | 9.70 | 7.00 | COc1cc(CN(C)C)ccc1OCC(=O)Nc1cc(-n2nc(C)cc2C)nc(-c2ccc(C)o2)n1 | –
